Literature values as cited in publication PMC6370995, “Phase I study of PF‐04895162, a Kv7 channel opener, reveals unexpected hepatotoxicity in healthy subjects, but not rats or monkeys: clinical evidence of disrupted bile acid homeostasis” (Pharmacology Research & Perspectives, 2019).

Columns and labels:
[1] = test system: BSEP; set-up: method as in PMID 11309550; conditions: cited from earlier work
[2] = test system: patients; set-up: method as in PMID 27178047; conditions: 50 mg once daily, Phase 3 clinical study; cited from earlier work

COc1ccccc1Oc1c(NS(=O)(=O)c2ccc(C(C)(C)C)cc2)nc(-c2ncccn2)nc1OCCO [bosentan]
BSEP inhibition potency [1]: ~ 12 μmol/L

Cc1cc(OCCCS(C)(=O)=O)cc(C)c1-c1cccc(COc2ccc3c(c2)OC[C@H]3CC(=O)O)c1 [TAK‐875]
clinical liver finding [2]: clinical hepatotoxicity in a small number of patients
